Like-named read-outs stand apart in the source and are kept apart here.
Legend:
S5.42A 5-HT1B receptor = S5.42A 5-HT1B receptor (Homo sapiens, UniProt P28222, S212A); test: cAMP accumulation in HEK293T cells, S5.42A 5-HT1B; assay type: cell-based; design: host or cells: HEK293T; details: point-mutated receptor, 3 independent experiments
Description: (§1) Briefly, cells transfected with the desired receptor construct and compounds were incubated in the dark for 90 min at 37 °C. After incubation, cAMP detection reagents were added, and TR-FRET was used to quantify the cAMP produced.
(§2) The functional activity of compounds was determined by stimulating cells expressing the desired receptor with FSK and test compound in parallel with 12 known concentrations of cAMP. The known concentrations of cAMP were used to create a standard curve for each experiment that was used to interpolate the unknown values of cAMP in wells with test compounds. […] The EC50 and EMAX values were determined using the “dose response – log[agonist] vs response (three parameter)” nonlinear regression model in Prism and transformed to pEC50 values, reported as mean ± SD.
Cell Type Receptor Cell Density [Forskolin] Incubation time
(§3) Summary of functional assay conditions at various 5-HT1 receptor point mutation constructs.

human 5-HT1D receptor [1] = molecular target: T1, human 5-HT1D receptor (Homo sapiens, UniProt P28221); test: cAMP accumulation (LANCE Ultra TR-FRET) in HEK293T cells, WT 5-HT1D; assay type: cell-based; details: for 5-HT1D EMAX (%): WT receptor; for 5-HT1D EMAX (%) / Emax: normalized to basal (0%) and 10 μM 5-CT (100%); for EC50: 5-HT1D pEC50, WT receptor, cAMP accumulation, HEKt cells, mean ± SD; for Emax: HEK-293T, read-out: 5-HT1D EMAX (%), WT receptor
T1 construct: host or cells: HEK293T
Description: as §1, §2, §3

human 5-HT1B receptor [2] = molecular target: T2, human 5-HT1B receptor (Homo sapiens, UniProt P28222); test: cAMP accumulation (LANCE Ultra TR-FRET) in HEK293T cells, WT 5-HT1B; assay type: cell-based; details: for 5-HT1B EMAX (%) / Emax: normalized to basal (0%) and 10 μM 5-CT (100%); for EC50: 5-HT1B pEC50, WT receptor; for Emax: HEK-293T, read-out: 5-HT1B EMAX (%), WT receptor
T2 construct: host or cells: HEK293T
Description: as §1, §2, §3

human 5-HT1D receptor [3] = molecular target: T1, human 5-HT1D receptor; test: Radioligand binding (saturation and competition), WT 5-HT1D
human 5-HT1A receptor [4] = molecular target: T3, human 5-HT1A receptor (Homo sapiens, UniProt P08908); test: Radioligand binding (saturation and competition), WT 5-HT1A
T3 construct: host or cells: HEK293T
T3 sequence (P08908 1-422): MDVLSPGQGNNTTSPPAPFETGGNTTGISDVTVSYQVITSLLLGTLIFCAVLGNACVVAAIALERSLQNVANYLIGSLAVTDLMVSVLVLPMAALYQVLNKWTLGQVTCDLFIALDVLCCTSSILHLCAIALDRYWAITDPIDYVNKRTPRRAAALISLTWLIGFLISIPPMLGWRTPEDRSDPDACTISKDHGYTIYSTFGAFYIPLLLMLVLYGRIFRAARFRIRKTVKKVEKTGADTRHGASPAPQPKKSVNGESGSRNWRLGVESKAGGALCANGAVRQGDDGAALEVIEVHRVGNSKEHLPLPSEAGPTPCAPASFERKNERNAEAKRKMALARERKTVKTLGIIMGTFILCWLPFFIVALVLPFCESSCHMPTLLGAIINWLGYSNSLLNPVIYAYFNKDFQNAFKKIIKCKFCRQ

human 5-HT1F receptor = molecular target: T4, human 5-HT1F receptor (Homo sapiens, UniProt P30939); test: Radioligand binding (saturation and competition), WT 5-HT1F
T4 construct: host or cells: HEK293T
T4 sequence (P30939 1-366): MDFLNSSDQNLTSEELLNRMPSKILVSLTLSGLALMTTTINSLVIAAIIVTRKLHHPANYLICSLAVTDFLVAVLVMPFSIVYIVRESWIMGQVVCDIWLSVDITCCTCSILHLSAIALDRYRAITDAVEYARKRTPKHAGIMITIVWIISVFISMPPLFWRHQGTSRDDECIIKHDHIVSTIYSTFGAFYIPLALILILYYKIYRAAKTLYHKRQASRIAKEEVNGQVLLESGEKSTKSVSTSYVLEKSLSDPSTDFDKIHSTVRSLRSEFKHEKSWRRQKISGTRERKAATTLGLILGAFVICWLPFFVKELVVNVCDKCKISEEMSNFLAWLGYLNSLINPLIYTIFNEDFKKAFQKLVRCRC

human 5-HT1B receptor [5] = molecular target: T2, human 5-HT1B receptor; test: Radioligand binding (saturation and competition), WT 5-HT1B
human 5-HT1A receptor [6] = molecular target: T3, human 5-HT1A receptor; test: cAMP accumulation (LANCE Ultra TR-FRET) in HEK293T cells, WT 5-HT1A; assay type: cell-based; details: for EC50: 5-HT1A pEC50, WT receptor, cAMP accumulation, HEKt cells, mean ± SD; for Emax: HEK-293T, read-out: 5-HT1A EMAX (%), WT receptor; for Emax / 5-HT1A EMAX (%): normalized to basal (0%) and 10 μM 5-CT (100%); for 5-HT1A EMAX (%): WT receptor
Description: as §1, §2, §3

[7] = Affinity (pKi ± SD) 5-HT1D, WT receptor, [^3H]5-CT competition, mean ± SD
[8] = Affinity (pKi ± SD) 5-HT1A, WT receptor, [^3H]5-CT competition, mean ± SD
[9] = Affinity (pKi ± SD) 5-HT1B, WT receptor, [^3H]5-CT competition, mean ± SD
[10] = WT receptor, [^3H]5-CT competition, mean ± SD
[11] = cAMP accumulation, HEKt cells, mean ± SD

T1 sequence (P28221 whole entry): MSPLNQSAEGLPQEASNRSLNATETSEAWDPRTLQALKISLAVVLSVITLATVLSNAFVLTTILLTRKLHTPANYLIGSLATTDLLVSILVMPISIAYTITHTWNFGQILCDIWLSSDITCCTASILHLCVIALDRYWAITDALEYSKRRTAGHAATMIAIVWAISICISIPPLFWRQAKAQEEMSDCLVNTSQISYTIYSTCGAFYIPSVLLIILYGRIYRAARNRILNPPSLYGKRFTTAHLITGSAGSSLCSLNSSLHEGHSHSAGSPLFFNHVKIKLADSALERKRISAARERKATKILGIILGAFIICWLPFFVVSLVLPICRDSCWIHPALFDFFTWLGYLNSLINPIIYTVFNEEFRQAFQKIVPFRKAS
T2 sequence (P28222 whole entry): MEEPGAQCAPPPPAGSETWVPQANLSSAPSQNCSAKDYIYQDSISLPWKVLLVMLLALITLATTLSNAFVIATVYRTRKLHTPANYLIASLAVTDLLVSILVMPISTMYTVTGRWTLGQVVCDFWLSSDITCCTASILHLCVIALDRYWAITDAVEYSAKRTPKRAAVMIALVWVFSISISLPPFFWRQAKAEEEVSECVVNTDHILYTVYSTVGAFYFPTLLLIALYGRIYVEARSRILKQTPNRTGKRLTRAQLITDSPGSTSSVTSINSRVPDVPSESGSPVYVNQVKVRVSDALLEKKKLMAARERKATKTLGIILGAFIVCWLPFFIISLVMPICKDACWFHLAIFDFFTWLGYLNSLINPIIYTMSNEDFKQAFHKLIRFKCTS
Chain of S5.42A 5-HT1B receptor (P28222 whole entry S212A): as the sequence (P28222 whole entry) above, with S212A counted along it

| Compound | 5-HT1B EMAX (%) (human 5-HT1B receptor [2]; WT receptor) | Ki (human 5-HT1D receptor [3]; [7]) [nM] | Ki (human 5-HT1A receptor [4]; [8]) [nM] | Ki (human 5-HT1F receptor) [nM] | Ki (human 5-HT1B receptor [5]; [9]) [nM] | EC50 (human 5-HT1D receptor [1]) [nM] | Emax (human 5-HT1D receptor [1]) [%] | EC50 (human 5-HT1A receptor [6]) [nM] | Emax (human 5-HT1A receptor [6]) [%] | EC50 (human 5-HT1B receptor [2]; [11]) [nM] | Emax (human 5-HT1B receptor [2]) [%] | further results |
| --- | --- | --- | --- | --- | --- | --- | --- | --- | --- | --- | --- | --- |
| NCCc1c[nH]c2ccc(C(N)=O)cc12 [5-CT, 5-carboxamidotryptamine, reference compound] | 100 ± 1 |  |  |  |  |  |  |  |  |  |  | change in potency (qualitative) (S5.42A 5-HT1B receptor): significant reduction; 5-HT1D EMAX (%) (human 5-HT1D receptor [1]): 101 ± 1%; 5-HT1B pEC50 (human 5-HT1B receptor [2]; WT receptor, cAMP accumulation, HEKt cells, mean ± SD): 8.46 ± 0.18 |
| CN(C)[C@@H]1CCc2c(cccc2-c2cccc3ccccc23)C1 [(R)-NAP] |  | 107 | 263 | > 10000 | 155 |  |  |  |  |  |  |  |
| CN(C)[C@@H]1CCc2c(cccc2-c2cccn2C)C1 [(R)-NMP] |  | 316 |  | > 10000 | 339 |  |  |  |  |  |  | Affinity (pKi ± SD) 5-HT1A (human 5-HT1A receptor [4]; [10]): 6.26 ± 0.03 |
| Fc1ccccc1-c1cccc2c1CC[C@@H](N1CCCC1)C2 [(R)-PFPT] |  |  |  |  |  |  |  |  |  |  |  | Ki (human 5-HT1D receptor [3]; read-out: Affinity (pKi ± SD) 5-HT1D (converted)): 417 nM; Ki (human 5-HT1A receptor [4]; read-out: Affinity (pKi ± SD) 5-HT1A (converted)): 288 nM; Ki (human 5-HT1F receptor; WT receptor, [^3H]5-HT competition, mean ± SD, read-out: Affinity (pKi ± SD) 5-HT1F (converted)): > 10000 nM; Ki (human 5-HT1B receptor [5]; read-out: Affinity (pKi ± SD) 5-HT1B (converted)): 457 nM |
| CN(C)[C@@H]1CCc2c(cccc2-c2cccs2)C1 [(R)-TAT] |  | 813 | 1510 | > 10000 | 3160 |  |  |  |  |  |  |  |
| CN(C)[C@H]1CCc2c(cccc2-c2ccccc2)C1 [(S)-5-PAT] | 28 ± 3 | 0.661 |  | 6760 | 10.2 | 0.741 | > 90 | 70.8 | > 90 | 14.5 | ~30 | 5-HT1D EMAX (%) (human 5-HT1D receptor [1]): 97 ± 2%; more potent at the 5-HT1D receptor compared to 5-HT1A and 5-HT1B receptors (human 5-HT1D receptor [1]; cAMP potency ratio): over 10 fold; Affinity (pKi ± SD) 5-HT1A (human 5-HT1A receptor [4]; [10]): 8.20 ± 0.04; 5-HT1A EMAX (%) (human 5-HT1A receptor [6]): 100 ± 2% |
| CN(C)[C@H]1CCc2c(cccc2-c2ccccc2Cl)C1 [(S)-CPT] | 100 ± 1 | 0.447 | 5.75 | > 10000 | 0.891 | 2.24 | 101 ± 1 | 43.7 | 91 ± 2 | 0.347 | > 90 |  |
| CCCN(CCC)[C@H]1CCc2c(cccc2-c2ccccc2Cl)C1 [(S)-DCPT] | 103 ± 2 | 0.562 | 1.41 | 7590 | 0.398 | 2.4 | 101 ± 2 | 26.3 | 92 ± 4 | 0.288 | > 90 |  |
| CCCN(CCC)[C@H]1CCc2c(cccc2-c2ccccc2F)C1 [(S)-DFPT] | 100 ± 2 | 0.155 | 1.45 | 8510 | 2 | 1.17 | 99 ± 2 | 12.6 | 100 ± 2 | 1.23 | > 90 |  |
| CN(C)[C@H]1CCc2c(cccc2-c2ccco2)C1 [(S)-FAT] |  | 11.7 |  | 9330 | 132 | 12 | 100 ± 2 | 490 | 92 ± 4 | 117 | 102 ± 3 | Affinity (pKi ± SD) 5-HT1A (human 5-HT1A receptor [4]; [10]): 7.48 ± 0.06 |
| CN(C)[C@H]1CCc2c(cccc2-c2cccn2C)C1 [(S)-NMP] | 54 ± 5 | 3.98 | 20.4 | > 10000 | 5.75 | 8.32 | < 85 | 27.5 | < 85 | 11.2 |  | 5-HT1D EMAX (%) (human 5-HT1D receptor [1]): 66 ± 6%; 5-HT1A EMAX (%) (human 5-HT1A receptor [6]): 70 ± 5% |
| CN(C)[C@H]1CCc2c(cccc2-c2cccs2)C1 [(S)-TAT] |  | 1.7 | 6.17 | > 10000 | 6.31 | 41.7 | 60 ± 3 | 23.4 | 91 ± 3 | 15.8 | 85 ± 4 |  |

Source: PMC10797628
